# In patent US20100029615A1, “BENZIMIDAZOLE DERIVATIVES” (priority 2006, published 2010):
# Counter-ions that a name gives are not always drawn.
# Target: T1, SMO (Mus musculus, UniProt P56726)
# T1 construct: endogenous in cells; host or cells: C3H10T1/2 (ATCC #CCL-226)
# Assay: Smoothened (SMO)/Sonic Hedgehog (SHh) Transient Transcriptional Activation Assay (Gli-luciferase reporter in C3H10T1/2 cells)
# Type: cell-based, murine
# Conditions: 2 uM test compound, SHh 250 ng/ml, 20 hrs
# Method in brief: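 Luminescence (Dual-Glo) measured after 20 h co-exposure at 37 °C to 250 ng/ml human SHh and compound at 2 uM down to 2 nM final. Cells were C3H10T1/2 carrying a transfected murine 10× Gli response-element luciferase construct with pEGFP, starved 20 h in 0.5% calf serum beforehand.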
# T1 sequence (P56726 33-793): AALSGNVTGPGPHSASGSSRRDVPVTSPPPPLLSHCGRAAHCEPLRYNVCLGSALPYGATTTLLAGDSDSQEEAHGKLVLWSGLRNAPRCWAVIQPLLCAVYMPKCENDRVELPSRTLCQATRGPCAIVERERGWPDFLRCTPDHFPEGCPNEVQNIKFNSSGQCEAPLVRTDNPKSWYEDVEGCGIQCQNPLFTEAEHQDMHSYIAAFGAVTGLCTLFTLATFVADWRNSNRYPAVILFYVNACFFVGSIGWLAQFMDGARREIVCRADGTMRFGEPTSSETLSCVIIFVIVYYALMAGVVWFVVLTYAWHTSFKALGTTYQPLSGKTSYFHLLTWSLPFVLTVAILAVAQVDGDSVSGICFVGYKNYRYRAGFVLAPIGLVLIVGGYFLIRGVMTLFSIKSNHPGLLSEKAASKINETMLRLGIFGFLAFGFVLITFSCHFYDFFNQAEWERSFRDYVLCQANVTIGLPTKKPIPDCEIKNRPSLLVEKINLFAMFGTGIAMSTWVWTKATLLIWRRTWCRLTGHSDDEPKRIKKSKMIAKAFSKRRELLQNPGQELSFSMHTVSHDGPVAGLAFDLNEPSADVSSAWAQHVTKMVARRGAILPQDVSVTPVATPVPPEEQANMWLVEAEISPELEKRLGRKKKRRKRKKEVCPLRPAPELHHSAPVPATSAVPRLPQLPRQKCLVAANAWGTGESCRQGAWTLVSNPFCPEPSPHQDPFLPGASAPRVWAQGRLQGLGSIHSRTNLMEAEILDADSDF
row,Compound,SMO % inhibition at 2 uM [%]
1,"N-((1R,3S)-3-(1H-benzo[d]imidazol-2-yl)cyclohexyl]-2,3-dihydrobenzo[b][1,4]dioxine-6-carboxamide and N-((1S,3R)-3-(1H-benzo[d]imidazol-2-yl)cyclohexyl)-2,3-dihydrobenzo[b][1,4]dioxine-6-carboxamide [Example 2]",84

# Same assay, conditions: C3H 10T1/2, 2 uM test compound, SHh 250 ng/ml, 20 hrs, read-out: SMO % inhibition at 2 uM
row,Compound,inhibition at 2 µM [%]
1,"COc1cc(OC)cc(C(=O)NC2CCCC(c3nc4cc(NC(=O)C(C)C)ccc4[nH]3)C2)c1 (stereo not shown) [Example 10, N-(3-(5-Isobutyramido-1H-benzo[d]imidazol-2-yl)cyclohexyl)-3,5-dimethoxybenzamide]",96
2,"COc1ccc2[nH]c(C3CCCC(NC(=O)c4ccc5c(c4)OCCO5)C3)nc2c1 (stereo not shown) [Example 29, N-(3-(5-Methoxy-1H-benzo[d]imidazol-2-yl)cyclohexyl]-2,3-dihydrobenzo[b][1,4]dioxine-6-carboxamide]",102

# Same assay, conditions: C3H 10T1/2, 2 μM test compound, SHh 250 ng/ml, 20 hrs, read-out: SMO CELL % INHIBITION @ 2 μM
row,Compound,inhibition at 2 µM [%]
1,"COc1ccc2[nH]c([C@H]3CCC[C@@H](NC(=O)c4ccc5c(c4)OCCO5)C3)nc2c1 [Example 88, N-[(1R,3S)-3-(5-methoxy-1H-benzimidazol-2-yl)cyclohexyl]-2,3-dihydro-1,4-benzodioxine-6-carboxamide HCl]",106
2,"Cn1cncc1C(=O)N[C@@H]1CCC[C@H](c2nc3ccccc3[nH]2)C1 [Example 174, N-[(1R,3S)-3-(1H-benzimidazol-2-yl)cyclohexyl]-1-methyl-1H-imidazole-5-carboxamide HCl]",64
3,"O=C1COc2ccc(C(=O)N[C@@H]3CCC[C@H](c4nc5cc(Cl)ccc5[nH]4)C3)cc2N1 [Example 299, N-[(1R,3S)-3-(5-chloro-1H-benzimidazol-2-yl)cyclohexyl]-3-oxo-3,4-dihydro-2H-1,4-benzoxazine-6-carboxamide (+)-tartrate]",105
4,"COc1cc(OC)cc(C(=O)NC2CCCC(c3nc4ccc(F)cc4[nH]3)C2)c1 (stereo not shown) [Example 70, N-[3-(6-fluoro-1H-benzimidazol-2-yl)cyclohexyl]-3,5-dimethoxybenz-amide]",83
5,"O=C(N[C@@H]1CCC[C@H](c2nc3ccccc3[nH]2)C1)c1ccc2ccccc2c1 [Example 187, N-[(1R,3S)-3-(1H-benzimidazol-2-yl)cyclohexyl]-2-naphthamide triflouroacetate]",94
6,"COc1cc(OC)cc(C(=O)NC2CCCC(c3nc4cc(C(F)(F)F)ccc4[nH]3)C2)c1 (stereo not shown) [Example 74, 3,5-dimethoxy-N-{3-[6-(trifluoromethyl)-1H-benzimidazol-2-yl)cyclohexyl}-benzamide HCl]",105
7,"O=C(N[C@@H]1CCC[C@H](c2nc3cc(C(F)(F)F)ccc3[nH]2)C1)c1ccc2c(c1)CN(CC1CC1)CC2 [Example 290, 2-(cyclopropyl-methyl)-N-{(1R,3S)-3-[5-(trifluoromethyl)-1H-benzimidazol-2-yl]cyclohexyl}-1,2,3,4-tetrahydroisoquino-line-7-carboxamide HCl]",104
8,"O=C(N[C@@H]1CCC[C@H](c2nc3ccccc3[nH]2)C1)c1c[nH]c2ccccc12 [Example 205, N-[(1R,3S)-3-(1H-benzimidazol-2-yl)cyclohexyl]-1H-indole-3-carboxamide triflouroacetate]",54
9,"Cc1nn(C)c2sc(C(=O)N[C@@H]3CCC[C@H](c4nc5ccccc5[nH]4)C3)cc12 [Example 204, N-[(1R,3S)-3-(1H-benzimidazol-2-yl)cyclohexyl]-1,3-dimethyl-1H-thieno[2,3-c]pyrazole-5-carboxamide triflouroacetate]",103
10,O=C(Nc1ccc(Cl)c(Cl)c1)N[C@@H]1CCC[C@H](c2nc3ccccc3[nH]2)C1 [Example 237],111
11,"Cn1cc(CC(=O)NC2CCCC(c3nc4ccccc4[nH]3)C2)c2ccccc21 (stereo not shown) [Example 115, N-[3-(1H-benzimidazol-2-yl)cyclohexyl]-2-(1-methyl-1H-indol-3-yl)acetamide triflouroacetate]",106
12,"O=C(N[C@@H]1CCC[C@H](c2nc3cc(C(F)(F)F)ccc3[nH]2)C1)c1ccc2c(c1)CCNC2 [Example 287, N-{(1R,3S)-3-[5-(trifluoromethyl)-1H-benzimidazol-2-yl]cyclohexyl}-1,2,3,4-tetrahydroisoquino-line-6-carboxamide HCl]",107
13,"CN1C(=O)COc2ccc(C(=O)N[C@@H]3CCC[C@H](c4nc5cc(C(F)(F)F)ccc5[nH]4)C3)cc21 [Example 280, 4-methyl-3-oxo-N-{(1R,3S)-3-[5-(trifluoromethyl)-1H-benzimidazol-2-yl]cyclohexyl}-3,4-dihydro-2H-1,4-benzoxazine-6-carboxamide HCl]",112
14,"O=C(N[C@@H]1CCC[C@H](c2nc3ccccc3[nH]2)C1)c1cc2c(cn1)OCCO2 [Example 253, N-((1R,3S)-3-(1H-benzo[d]imidaz-ol-2-yl)cyclohexyl)-2,3-dihydro-[1,4]dioxino[2,3-c]pyridine-7-carboxamide]",100
15,"O=C(Cn1ccc2ccccc2c1=O)NC1CCCC(c2nc3ccccc3[nH]2)C1 (stereo not shown) [Example 154, N-[3-(1H-benzimidazol-2-yl)cyclohexyl]-2-(1-oxoisoquinolin-2(1H)-yl)acetamide triflouroacetate]",57
16,"O=C(NCCCCl)N[C@@H]1CCC[C@H](c2nc3ccccc3[nH]2)C1 [Example 225, 1-((1R,3S)-3-(1H-benzo[d]imidaz-ol-2-yl)cyclohexyl)-3-(3-chloropropyl)-urea]",70

row,Compound,inhibition at 2 µM [%]
1,"CN(C)CCNc1ccc(C(=O)N[C@@H]2CCC[C@H](c3nc4cc(C(F)(F)F)ccc4[nH]3)C2)cn1 [Example 293, 6-{[2-(dimethylamino)ethyl]amino}-N-{(1R,3S)-3-[5-(trifluoromethyl)-1H-benzimidazol-2-yl]cyclohexyl}-nicotinamide HCl]",106
2,"Cn1cc(CN2CCCC2)cc1C(=O)NC1CCCC(c2nc3ccccc3[nH]2)C1 (stereo not shown) [Example 130, N-[3-(1H-benzimidazol-2-yl)cyclohexyl]-1-methyl-4-(pyrrolidin-1-ylmethyl)-1H-pyrrole-2-carboxamide triflouroacetate]",84
3,"O=C(NC1CCCC(c2nc3ccccc3[nH]2)C1)c1cccnc1 (stereo not shown) [Example 53, N-[3-(1H-benzimidazol-2-yl)cyclohexyl]-nicotinamide HCl]",96
4,"CN1C(=O)CCc2cc(C(=O)N[C@@H]3CCC[C@H](c4nc5cc(Cl)ccc5[nH]4)C3)ccc21 [Example 305, N-[(1R,3S)-3-(5-chloro-1H-benzimidazol-2-yl)cyclohexyl]-1-methyl-2-oxo-1,2,3,4-tetrahydroquino-line-6-carboxamide (+)-tartrate]",81.2
5,"Cc1cccc(=O)n1CC(=O)NC1CCCC(c2nc3ccccc3[nH]2)C1 (stereo not shown) [Example 111, N-[3-(1H-benzimidazol-2-yl)cyclohexyl]-2-(6-methyl-2-oxopyridin-1(2H)-yl)acetamide triflouroacetate]",103
6,"O=C(N[C@@H]1CCC[C@H](c2nc3ccccc3[nH]2)C1)c1cc2ccc(Cl)cc2[nH]1 [Example 210, N-[(1R,3S)-3-(1H-benzimidazol-2-yl)cyclohexyl]-6-chloro-1H-indole-2-carboxamide triflouroacetate]",88
7,"Cc1cc(C)n2nc(C(=O)N[C@@H]3CCC[C@H](c4nc5ccccc5[nH]4)C3)cc2n1 [Example 194, N-[(1R,3S)-3-(1H-benzimidazol-2-yl)cyclohexyl]-5,7-dimethylpyrazolo-[1,5-a]pyrimidine-2-carboxamide triflouroacetate]",47
8,"CN1C(=O)CCc2cc(C(=O)N[C@@H]3CCC[C@H](c4nc5cc(C(F)(F)F)ccc5[nH]4)C3)ccc21 [Example 304, 1-methyl-2-oxo-N-[(1R,3S)-3-[5-(trifluoromethyl)-1H-benzimidazol-2-yl]cyclohexyl}-1,2,3,4-tetrahydroquin-oline-6-carboxamide (+)-tartrate]",111
9,"COc1ccc2cc(C(=O)NC3CCCC(c4nc5ccccc5[nH]4)C3)n(C)c2c1 (stereo not shown) [Example 118, N-[3-(1H-benzimidazol-2-yl)cyclohexyl]-6-methoxy-1-methyl-1H-indole-2-carboxamide triflouroacetate]",83
10,"COc1ccc2cc(C(=O)N[C@H]3CCC[C@H](c4nc5ccccc5[nH]4)C3)n(C)c2c1 [Example 248, N-(3-(1H-benzo[d]imidaz-ol-2-yl)cyclohexyl)-6-methoxy-1-methyl-1H-indole-2-carboxamide HCl]",74
11,"O=C(CN1C[C@@H]2CC[C@H]1C2)NC1CCCC(c2nc3ccccc3[nH]2)C1 (stereo partly drawn) [Example 138, 2-[(1S,4R)-2-azabicyclo[2.2.1]hept-2-yl]-N-[3-(1H-benzimidazol-2-yl)cyclohexyl]-acetamide triflouroacetate]",100
12,"CN1c2ccccc2OCC1CC(=O)NC1CCCC(c2nc3ccccc3[nH]2)C1 (stereo not shown) [Example 94, N-[3-(1H-benzimidazol-2-yl)cyclohexyl]-2-(4-methyl-3,4-dihydro-2H-1,4-benzoxazin-3-yl)acetamide triflouroacetate]",96
13,"COc1ccc(C(=O)NC2CCCC(c3nc4ccccc4[nH]3)C2)cc1Cl (stereo not shown) [Example 59, N-[3-(1H-benzimidazol-2-yl)cyclohexyl]-3-chloro-4-methoxybenz-amide HCl]",101
14,"O=C(CNC(=O)c1ccccc1)NC1CCCC(c2nc3ccccc3[nH]2)C1 (stereo not shown) [Example 117, N-(2-{[3-(1H-benzimidazol-2-yl)cyclohexyl]amino}-2-oxoethyl)benz-amide triflouroacetate]",102
15,"COc1ccc2oc(C(=O)N[C@@H]3CCC[C@H](c4nc5ccccc5[nH]4)C3)cc2c1 [Example 184, N-[(1R,3S)-3-(1H-benzimidazol-2-yl)cyclohexyl]-5-methoxy-1-benzofuran-2-carboxamide triflouroacetate]",61
